# Counter-ions that a name gives are not always drawn.
# Experiments:
# [1] = tested on: SB.msgc-1; assay: viability at highest tested concentration (MAXR) relative to DMSO; higher = less cytotoxic; settings: SB.msgc-1 (sporadic gastric cancer)
# How it was run: (§1)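 The values represent viability normalised to DMSO, expressed at the highest concentration or as trapezoidal area under the curve. Cells were hereditary or sporadic patient-derived gastric cancer cells, 500 in 5 μL medium per 1536 well. They were dosed with 23 nL of compound in DMSO by pintool over 11 threefold dilutions, with each compound's top concentration recorded. CellTiter-Glo was applied 48 h later for 30 min at room temperature before luminescence was read on a ViewLux.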
# [2] = tested on: SB.mhdgc-1; assay: as above; settings: SB.mhdgc-1 (hereditary c.1380delA CDH1 gastric cancer)
# How it was run: as §1
# [3] = tested on: SB.msgc-1; assay: area under the dose-response curve of % viability (trapezoidal, 11 doses) (% viability x log10 concentration); higher = less cytotoxic; settings: SB.msgc-1 (sporadic gastric cancer)
# How it was run: as §1
# [4] = tested on: SB.mhdgc-1; assay: as above; settings: SB.mhdgc-1 (hereditary c.1380delA CDH1 gastric cancer)
# How it was run: as §1
smiles,measurement,setting,value
NC/1=N/C(=O)C2=C(N1)[N](C=N2)[C@@H]3C[C@H](O)[C@@H](CO)C3=C [Entecavir] (top concentration 46.0829 µM),viability,[1],58.3%
same,viability,[2],40.3%
same,area under the dose-response curve,[3],494
same,area under the dose-response curve,[4],512
Nc1ccccc1NC(=O)c1ccc(CNC(=O)OCc2cccnc2)cc1 [Entinostat] (top concentration 46.0829 µM),viability,[1],11%
same,viability,[2],44.9%
same,area under the dose-response curve,[3],390
same,area under the dose-response curve,[4],506
C[N]1C=C(C2=CC=CC=C12)\C3=C(\C(=O)NC3=O)C4=C[N](C5CCN(CC5)CC6=NC=CC=C6)C7=C4C=CC=C7 [Enzastaurin] (top concentration 46.0829 µM),viability,[1],31.4%
same,viability,[2],37.4%
same,area under the dose-response curve,[3],486
same,area under the dose-response curve,[4],447
CC(/C=C1\SC(=S)N(CC(=O)O)C1=O)=C\c1ccccc1 [Epalrestat] (top concentration 46.0829 µM),viability,[1],104%
same,viability,[2],84.9%
same,area under the dose-response curve,[3],565
same,area under the dose-response curve,[4],499
CNC[C@H](O)c1ccc(O)c(O)c1 [Epinephrine] (top concentration 92.1659 µM),viability,[1],78.5%
same,viability,[2],20.7%
same,area under the dose-response curve,[3],514
same,area under the dose-response curve,[4],484
COc1cccc2c1C(=O)c1c(O)c3c(c(O)c1C2=O)C[C@@](O)(C(=O)CO)C[C@@H]3O[C@H]1C[C@H](N)[C@@H](O)[C@H](C)O1 [Epirubicin hydrochloride] (top concentration 46.0829 µM),viability,[1],36.3%
same,viability,[2],24.7%
same,area under the dose-response curve,[3],390
same,area under the dose-response curve,[4],353
COC(=O)[C@@H]1CC2=CC(=O)CC[C@]2(C)[C@@]23O[C@@H]2C[C@@]2(C)[C@@H](CC[C@@]24CCC(=O)O4)[C@H]13 [Eplerenone] (top concentration 46.0829 µM),viability,[1],111%
same,viability,[2],127%
same,area under the dose-response curve,[3],524
same,area under the dose-response curve,[4],555
C/C(=C\c1csc(C)n1)[C@@H]1C[C@@H]2O[C@@H]2CCC[C@H](C)[C@H](O)[C@@H](C)C(=O)C(C)(C)[C@@H](O)CC(=O)O1 [Epothilone A] (top concentration 46.0829 µM),viability,[1],42.9%
same,viability,[2],52.1%
same,area under the dose-response curve,[3],256
same,area under the dose-response curve,[4],246
C/C(=C\c1csc(C)n1)[C@@H]1C[C@@H]2O[C@]2(C)CCC[C@H](C)[C@H](O)[C@@H](C)C(=O)C(C)(C)[C@@H](O)CC(=O)O1 [Epothilone B] (top concentration 46.0829 µM),viability,[1],46.2%
same,viability,[2],33.9%
same,area under the dose-response curve,[3],217
same,area under the dose-response curve,[4],245
O=C(O)CSCC(=O)NC1CCSC1=O (configuration not stated) [Erdosteine] (top concentration 46.0829 µM),viability,[1],112%
same,viability,[2],143%
same,area under the dose-response curve,[3],547
same,area under the dose-response curve,[4],591
CC(C)C(C)/C=C/C(C)C1CCC2C3=CC=C4CC(O)CCC4(C)C3CCC21C (configuration not stated) [Ergosterol] (top concentration 46.0829 µM),viability,[1],97.5%
same,viability,[2],96.5%
same,area under the dose-response curve,[3],521
same,area under the dose-response curve,[4],512
C#Cc1cccc(Nc2ncnc3cc(OCCOC)c(OCCOC)cc23)c1 [Erlotinib hydrochloride] (top concentration 46.0829 µM),viability,[1],22.1%
same,viability,[2],33.1%
same,area under the dose-response curve,[3],388
same,area under the dose-response curve,[4],379
Oc1ccc([C@@H]2Oc3ccc(O)cc3[C@@H]3CCC[C@@H]32)cc1 [Erteberel] (top concentration 46.0829 µM),viability,[1],12.8%
same,viability,[2],16.6%
same,area under the dose-response curve,[3],278
same,area under the dose-response curve,[4],492
CC[C@H]1OC(=O)[C@H](C)[C@@H](O[C@H]2C[C@@](C)(OC)[C@@H](O)[C@H](C)O2)[C@H](C)[C@@H](O[C@@H]2O[C@@H](C)C[C@H](N(C)C)[C@H]2O)[C@](C)(O)C[C@@H](C)C(=O)[C@H](C)[C@@H](O)[C@]1(C)O [Erythromycin] (top concentration 46.0829 µM),viability,[1],80.6%
same,viability,[2],91%
same,area under the dose-response curve,[3],515
same,area under the dose-response curve,[4],445
C[C@]12CC[C@@H]3c4ccc(O)cc4CC[C@H]3[C@@H]1[C@@H](O)[C@@H](O)[C@@H]2O [Estetrol] (top concentration 46.0829 µM),viability,[1],78.6%
same,viability,[2],7.6%
same,area under the dose-response curve,[3],549
same,area under the dose-response curve,[4],439
C[C@]12CC[C@@H]3c4ccc(O)cc4CC[C@H]3[C@@H]1CC[C@@H]2O [Estradiol] (top concentration 46.0829 µM),viability,[1],20.5%
same,viability,[2],74.8%
same,area under the dose-response curve,[3],462
same,area under the dose-response curve,[4],565
C[C@]12CC[C@@H]3c4ccc(O)cc4CC[C@H]3[C@@H]1C[C@@H](O)[C@@H]2O [Estriol] (top concentration 46.0829 µM),viability,[1],91%
same,viability,[2],106%
same,area under the dose-response curve,[3],517
same,area under the dose-response curve,[4],513
C[C@]12CCC3c4ccc(O)cc4CCC3C1CCC2=O (some centres not stated) [Estrone] (top concentration 46.0829 µM),viability,[1],103%
same,viability,[2],87.7%
same,area under the dose-response curve,[3],522
same,area under the dose-response curve,[4],449
C#C[C@]1(O)CC[C@H]2[C@@H]3CCc4cc(O)ccc4[C@H]3CC[C@@]21C [Ethinylestradiol] (top concentration 46.0829 µM),viability,[1],2.36%
same,viability,[2],3.31%
same,area under the dose-response curve,[3],290
same,area under the dose-response curve,[4],496
CCc1cc(C(N)=S)ccn1 [Ethionamide] (top concentration 46.0829 µM),viability,[1],108%
same,viability,[2],129%
same,area under the dose-response curve,[3],540
same,area under the dose-response curve,[4],565
CC\12CCC(=O)\C=C1CCC3C2CCC4(C)C3CCC4(O)C#C (configuration not stated) [Ethisterone] (top concentration 46.0829 µM),viability,[1],92.5%
same,viability,[2],67.7%
same,area under the dose-response curve,[3],499
same,area under the dose-response curve,[4],444
CCC1(C)CC(=O)NC1=O (configuration not stated) [Ethosuximide] (top concentration 46.0829 µM),viability,[1],111%
same,viability,[2],100%
same,area under the dose-response curve,[3],537
same,area under the dose-response curve,[4],499
CCc1cccc2c3c([nH]c12)C(CC)(CC(=O)O)OCC3 (configuration not stated) [Etodolac] (top concentration 46.0829 µM),viability,[1],89.3%
same,viability,[2],98.9%
same,area under the dose-response curve,[3],462
same,area under the dose-response curve,[4],580
CCOC(=O)c1cncn1[C@H](C)c1ccccc1 [Etomidate] (top concentration 46.0829 µM),viability,[1],90.1%
same,viability,[2],107%
same,area under the dose-response curve,[3],533
same,area under the dose-response curve,[4],593
COc1cc([C@@H]2c3cc4c(cc3[C@@H](O[C@@H]3O[C@@H]5CO[C@@H](C)O[C@H]5[C@H](O)[C@H]3O)[C@H]3COC(=O)[C@H]23)OCO4)cc(OC)c1O [Etoposide] (top concentration 46.0829 µM),viability,[1],41.2%
same,viability,[2],30.1%
same,area under the dose-response curve,[3],400
same,area under the dose-response curve,[4],264
CO[C@H]1C[C@@H]2CC[C@@H](C)[C@@](O)(O2)C(=O)C(=O)N2CCCC[C@H]2C(=O)O[C@H]([C@H](C)C[C@@H]2CC[C@@H](OCCO)[C@H](OC)C2)CC(=O)[C@H](C)/C=C(/C)[C@@H](O)[C@@H](OC)C(=O)[C@H](C)C[C@H](C)\C=C/C=C\C=C/1C [Everolimus] (top concentration 46.0829 µM),viability,[1],79.6%
same,viability,[2],41%
same,area under the dose-response curve,[3],466
same,area under the dose-response curve,[4],356
CN1c2ccccc2C(=O)N2CCc3c([nH]c4ccccc34)C21 (configuration not stated) [Evodiamine] (top concentration 46.0829 µM),viability,[1],65%
same,viability,[2],58.1%
same,area under the dose-response curve,[3],531
same,area under the dose-response curve,[4],546
C[C@]12CC[C@H]3[C@@H](CC(=C)\C4=C\C(=O)\C=C/[C@]34C)[C@@H]1CCC2=O [Exemestane] (top concentration 46.0829 µM),viability,[1],72.6%
same,viability,[2],73.9%
same,area under the dose-response curve,[3],523
same,area under the dose-response curve,[4],526
CCOC(=O)[C@@H](N)CCC(=O)N[C@@H](CSCc1ccccc1)C(=O)N[C@@H](C(=O)OCC)c1ccccc1 [Ezatiostat] (top concentration 46.0829 µM),viability,[1],41.6%
same,viability,[2],4.09%
same,area under the dose-response curve,[3],476
same,area under the dose-response curve,[4],433
O=C1C(CCC(O)c2ccc(F)cc2)C(c2ccc(O)cc2)N1c1ccc(F)cc1 (configuration not stated) [Ezetimibe] (top concentration 46.0829 µM),viability,[1],94.6%
same,viability,[2],103%
same,area under the dose-response curve,[3],534
same,area under the dose-response curve,[4],534
CCC(=O)N[C@H]1CC[C@H](C(=O)N(C)c2ccc(-c3nc4ccccc4o3)cc2)C1 [FASN BI] (top concentration 46.0829 µM),viability,[1],27.6%
same,viability,[2],24.3%
same,area under the dose-response curve,[3],370
same,area under the dose-response curve,[4],402
COC1=CC=CC=C1C2=CC=CC(=C2)C/3=C(O)/C4=CC(=C(Cl)C=C4NC3=O)C#N [FASN MRK] (top concentration 92.1659 µM),viability,[1],69.7%
same,viability,[2],73.3%
same,area under the dose-response curve,[3],585
same,area under the dose-response curve,[4],516
Cc1nc(C(=O)NCC(=O)O)c(O)c2ccc(Oc3ccccc3)cc12 [FG-4592] (top concentration 46.0829 µM),viability,[1],98.3%
same,viability,[2],86.4%
same,area under the dose-response curve,[3],580
same,area under the dose-response curve,[4],513

# Reference: the supplement of paper PMC5412046
